From patent publication US5190741A, “Agents for diagnosing and treating melanomas, aromatic halogenated derivatives usable as such agents and their preparation” (Institut National de la Sante et de la Recherche Medicale …, priority 1989, dated 1993)

Test system: Dau amelanic human melanoma
Assay: Tissue distribution in Swiss nu/nu SSCUP mice bearing Dau
Type: in vivo
Protocol: The study of the tissue distribution of the ^125 I labelled compounds was performed in mice bearing grafted melanomas (cf. autoradiograms above). […] The animals are sacrificed at different time intervals of 1 to 24 hours after the injection. The blood is collected and the principal organs are excised. Aliquots are weighed and the radioactivity of the samples is measured in a […] 1191 counter (analytic tracer). The counting yield for iodine 125 is 60%. The results are expressed: as a percentage of the injected dose bound per g of tissue (% ID/g); in the form of the ratios [formula] This ratio reflects more precisely the selectivity of a molecule for an organ (tables 2, 4, 6, 8, 10 and 12).

For `CCNCCNC(=O)c1ccc(I)cc1` [Derivative B, N-(2-ethylaminoethyl) 4-iodo benzamide], the “intratumoral concentrations compared with A” value (4 to 6 h, Dau) was “slightly higher”, the brain/blood ratio (1 h) was 1,44 ± 0,069 and the eye/blood ratio (1 h) was 0,57 ± 0,011. For the same molecule, the intestine/blood ratio (1 h) was 3,44 ± 0,231, the kidney/blood ratio (1 h) was 9,10 ± 0,286 and the liver/blood ratio (1 h) was 5,56 ± 0,225. For the same molecule, the lungs/blood ratio (1 h) was 6 ± 0,353, the muscle/blood ratio (1 h) was 1,17 ± 0,040 and the pancreas/blood ratio (1 h) was 3,20 ± 0,099. The plasma/blood ratio (1 h) was 0,80 ± 0,017, the spleen/blood ratio (1 h) was 2,84 ± 0,091 and the stomach/blood ratio (1 h) was 2,66 ± 0,101. The submaxillary glands/blood ratio (1 h) was 4,82 ± 0,285, the tumor/blood ratio (1 h) was 1,33 ± 0,015 and the brain/blood ratio (2 h) was 1,43 ± 0,261. The eye/blood ratio (2 h) was 0,55 ± 0,052, the intestine/blood ratio (2 h) was 2,87 ± 0,34 and the kidney/blood ratio (2 h) was 7,00 ± 1,03. For the same molecule, the liver/blood ratio (2 h) was 3,62 ± 0,68, the lungs/blood ratio (2 h) was 6,33 ± 1,166 and the muscle/blood ratio (2 h) was 0,98 ± 0,182. For the same molecule, the pancreas/blood ratio (2 h) was 2,42 ± 0,36, the plasma/blood ratio (2 h) was 0,89 ± 0,068 and the spleen/blood ratio (2 h) was 2,31 ± 0,36. The stomach/blood ratio (2 h) was 3,40 ± 0,694, the submaxillary glands/blood ratio (2 h) was 4,48 ± 0,220 and the tumor/blood ratio (2 h) was 1,39 ± 0,103. For the same molecule, the brain/blood ratio (4 h) was 2,21 ± 0,304, the eye/blood ratio (4 h) was 0,71 ± 0,056 and the intestine/blood ratio (4 h) was 4,08 ± 0,599. For the same molecule, the kidney/blood ratio (4 h) was 8,03 ± 0,813, the liver/blood ratio (4 h) was 5,21 ± 0,519 and the lungs/blood ratio (4 h) was 8,77 ± 0,838. The muscle/blood ratio (4 h) was 1,24 ± 0,153, the pancreas/blood ratio (4 h) was 2,70 ± 0,300 and the plasma/blood ratio (4 h) was 0,94 ± 0,058. The spleen/blood ratio (4 h) was 2,07 ± 0,256, the stomach/blood ratio (4 h) was 4,34 ± 0,924 and the submaxillary glands/blood ratio (4 h) was 5,44 ± 0,297. The tumor/blood ratio (4 h) was 2,68 ± 0,757, the brain/blood ratio (6 h) was 0,44 ± 0,060 and the eye/blood ratio (6 h) was 0,36 ± 0,023. For the same molecule, the intestine/blood ratio (6 h) was 1,97 ± 0,112, the kidney/blood ratio (6 h) was 2,01 ± 0,252 and the liver/blood ratio (6 h) was 1,43 ± 0,439. For the same molecule, the lungs/blood ratio (6 h) was 1,82 ± 0,187, the muscle/blood ratio (6 h) was 0,24 ± 0,056 and the pancreas/blood ratio (6 h) was 0,76 ± 0,050. The plasma/blood ratio (6 h) was 1,16 ± 0,016, the spleen/blood ratio (6 h) was 0,62 ± 0,045 and the stomach/blood ratio (6 h) was 3,78 ± 0,400. For the same molecule, the submaxillary glands/blood ratio (6 h) was 5,16 ± 0,853, the tumor/blood ratio (6 h) was 0,65 ± 0,025 and the brain/blood ratio (8 h) was 1,31 ± 0,180. For the same molecule, the eye/blood ratio (8 h) was 0,60 ± 0,040, the intestine/blood ratio (8 h) was 3,30 ± 0,269 and the kidney/blood ratio (8 h) was 3,72 ± 0,573. The liver/blood ratio (8 h) was 6,03 ± 0,678, the lungs/blood ratio (8 h) was 3,69 ± 0,585 and the muscle/blood ratio (8 h) was 0,74 ± 0,216. For the same molecule, the pancreas/blood ratio (8 h) was 1,22 ± 0,151, the plasma/blood ratio (8 h) was 0,19 ± 0,020 and the spleen/blood ratio (8 h) was 1,28 ± 0,158. For the same molecule, the stomach/blood ratio (8 h) was 5,35 ± 0,355, the submaxillary glands/blood ratio (8 h) was 3,65 ± 0,266 and the tumor/blood ratio (8 h) was 1,17 ± 0,314. The brain/blood ratio (12 h) was 0,74 ± 0,072, the eye/blood ratio (12 h) was 0,88 ± 0,081 and the intestine/blood ratio (12 h) was 3,20 ± 0,502. For the same molecule, the kidney/blood ratio (12 h) was 5,46 ± 0,217, the liver/blood ratio (12 h) was 13,34 ± 0,462 and the lungs/blood ratio (12 h) was 3,04 ± 0,401. The muscle/blood ratio (12 h) was 0,45 ± 0,111, the pancreas/blood ratio (12 h) was 5 ± 0,310 and the plasma/blood ratio (12 h) was 0,16 ± 0,037. For the same molecule, the spleen/blood ratio (12 h) was 3,68 ± 0,493, the stomach/blood ratio (12 h) was 7,03 ± 0,728 and the submaxillary glands/blood ratio (12 h) was 2,52 ± 0,236. For the same molecule, the tumor/blood ratio (12 h) was 1,11 ± 0,059, the brain/blood ratio (24 h) was 0,22 ± 0,029 and the eye/blood ratio (24 h) was 0,94 ± 0,213. For the same molecule, the intestine/blood ratio (24 h) was 1,16 ± 0,141, the kidney/blood ratio (24 h) was 4,64 ± 0,328 and the liver/blood ratio (24 h) was 21,88 ± 1,493. For the same molecule, the lungs/blood ratio (24 h) was 1,72 ± 0,182, the muscle/blood ratio (24 h) was 0,27 ± 0,043 and the pancreas/blood ratio (24 h) was 1,40 ± 0,120. For the same molecule, the plasma/blood ratio (24 h) was 1,07 ± 0,154, the spleen/blood ratio (24 h) was 11,17 ± 1,75 and the stomach/blood ratio (24 h) was 2,28 ± 0,165. The submaxillary glands/blood ratio (24 h) was 1,81 ± 0,169, the tumor/blood ratio (24 h) was 0,79 ± 0,092 and the “tumor/blood ratios compared with A” value (Dau) was “not significantly different”.
